Measured values as given in patent US20020055528A1, “Artemisinin analogs having antimalarial, antiproliferative, and antitumor activities and chemoselective methods of making the same” (priority 1999, published 2002).

Legend:
Format in all cases: cell-based
[1] = system: MALME-3M; test: NCI 60 cell line screen (SRB), Melanoma
[2] = system: UACC-62; test: NCI 60 cell line screen (SRB), Melanoma
[3] = system: SK-MEL-5; test: NCI 60 cell line screen (SRB), Melanoma
[4] = system: IGROVI; test: NCI 60 cell line screen (SRB), Ovarian Cancer
[5] = system: OVCAR-3; test: NCI 60 cell line screen (SRB), Ovarian Cancer; settings: PG=0
[6] = system: OVCAR-4; test: NCI 60 cell line screen (SRB), Ovarian Cancer
[7] = system: OVCAR-5; test: NCI 60 cell line screen (SRB), Ovarian Cancer
[8] = system: OVCAR-8; test: NCI 60 cell line screen (SRB), Ovarian Cancer
[9] = system: SK-OV-3; test: NCI 60 cell line screen (SRB), Ovarian Cancer
[10] = system: 786-0; test: NCI 60 cell line screen (SRB), Renal Cancer
[11] = system: CAKI-1; test: NCI 60 cell line screen (SRB), Renal Cancer
[12] = system: TK-10; test: NCI 60 cell line screen (SRB), Renal Cancer
[13] = system: MCF7; test: NCI 60 cell line screen (SRB), Breast Cancer
[14] = system: NCI/ADR-RES; test: NCI 60 cell line screen (SRB), Breast Cancer
[15] = system: MDA-MB231/ATCC; test: NCI 60 cell line screen (SRB), Breast Cancer; settings: MDA- (first line of MDA-MB231/ATCC)
[16] = system: MB231/ATCC (second line of the wrapped label, with values of its own); test: NCI 60 cell line screen (SRB), Breast Cancer
[17] = system: MDA-MB-435; test: NCI 60 cell line screen (SRB), Breast Cancer
[18] = system: BT-549; test: NCI 60 cell line screen (SRB), Breast Cancer

Q: What does the source list for `CC1=C(C=Cc2cccc(C=CC3=C(C)C4CCC(C)C5CCC6(C)OOC45C(O3)O6)c2)OC2OC3(C)CCC4C(C)CCC1C24OO3` (stereo not drawn) [VII-f]?
A: Log10GI50 ([1]; PG=+50): −5.65 log10M; Log10GI50 ([1]; Table IV (LC50, PG=−50)): >−4.00 log10M; Log10TGI ([2]; PG=0): >−4.00 log10M; Log10GI50 ([2]; PG=+50): −4.90 log10M; Log10GI50 ([2]; Table IV (LC50, PG=−50)): >−4.00 log10M; Log10TGI ([3]; PG=0): −4.93 log10M; Log10 GI50 or LC50 ([3]; PG=+50): −5.80 log10M; Log10 GI50 or LC50 ([3]; Table IV (LC50, PG=−50)): >−4.00 log10M; Log10TGI ([4]; PG=0): >−4.00 log10M; Log10GI50 ([4]; PG=+50): −4.55 log10M; Log10GI50 ([4]; Table IV (LC50, PG=−50)): >−4.00 log10M; Log10TGI [5]: >−4.00 log10M; Log10GI50 ([6]; OVCAR-4, PG=+50): −5.93 log10M; Log10GI50 ([6]; Table IV (LC50, PG=−50), OVCAR−4): >−4.00 log10M; Log10TGI ([7]; PG=0): >−4.00 log10M; Log10GI50 ([7]; PG=+50): −6.04 log10M; Log10GI50 ([7]; Table IV (LC50, PG=−50)): >−4.00 log10M; Log10TGI ([8]; PG=0): −4.21 log10M; Log10GI50 ([8]; PG=+50): −5.57 log10M; Log10GI50 ([8]; Table IV (LC50, PG=−50)): >−4.00 log10M; Log10TGI ([9]; PG=0): >−4.00 log10M; Log10GI50 ([9]; PG=+50): −4.52 log10M; Log10GI50 ([9]; Table IV (LC50, PG=−50)): >−4.00 log10M; Log10TGI ([10]; PG=0): >−4.00 log10M; Log10GI50 ([10]; PG=+50): −5.40 log10M; Log10GI50 ([10]; Table IV (LC50, PG=−50)): >−4.00 log10M; Log10TGI ([11]; PG=0): >−4.00 log10M; Log10GI50 ([11]; PG=+50): −5.17 log10M; Log10GI50 ([11]; Table IV (LC50, PG=−50)): >−4.00 log10M; Log10TGI ([12]; PG=0): >−4.00 log10M; Log10GI50 ([12]; PG=+50): −5.44 log10M; Log10GI50 ([12]; Table IV (LC50, PG=−50)): >−4.00 log10M; Log10TGI ([13]; PG=0): >−4.00 log10M; Log10GI50 ([13]; PG=+50): −6.06 log10M; Log10GI50 ([13]; Table IV (LC50, PG=−50)): >−4.00 log10M; Log10TGI ([14]; PG=0): −4.34 log10M; Log10GI50 ([14]; PG=+50): −5.29 log10M; Log10GI50 ([14]; Table IV (LC50, PG=−50)): >−4.00 log10M; Log10TGI ([15]; PG=0): −4.70 log10M; Log10 GI50 or LC50 (per conditions) ([15]; PG=+50): −5.67 log10M; Log10 GI50 or LC50 (per conditions) ([15]; Table IV (LC50, PG=−50)): >−4.00 log10M; Log10GI50 ([16]; PG=+50): −6.13 log10M; Log10GI50 ([16]; Table IV (LC50, PG=−50)): >−4.00 log10M; Log10TGI ([17]; MDA-MB-435, PG=0): >−4.00 log10M; Log10GI50 ([17]; MDA-MB−435, PG=+50): −5.86 log10M; Log10GI50 ([17]; Table IV (LC50, PG=−50), MDA-MB-435): >−4.00 log10M; Log10GI50 ([18]; PG=+50): −6.50 log10M; Log10GI50 ([18]; Table IV (LC50, PG=−50)): >−4.00 log10M
